Where a SMILES comes first, the peptide text is derived from it.
Molecular target: T1, Vps4^101-437-Hcp1 (UniProt P52917+Q9I747)
T1 construct: 6xHis (TEV-cleavable) (N, cleaved yes); Pseudomonas aeruginosa Hcp1 fusion partner (candidate entry Q9I747, HCP1_PSEAE); made in house; host or cells: E. coli BL21(DE3)RIL
T1 sequence (P52917+Q9I747 with tags, fused parts or gaps): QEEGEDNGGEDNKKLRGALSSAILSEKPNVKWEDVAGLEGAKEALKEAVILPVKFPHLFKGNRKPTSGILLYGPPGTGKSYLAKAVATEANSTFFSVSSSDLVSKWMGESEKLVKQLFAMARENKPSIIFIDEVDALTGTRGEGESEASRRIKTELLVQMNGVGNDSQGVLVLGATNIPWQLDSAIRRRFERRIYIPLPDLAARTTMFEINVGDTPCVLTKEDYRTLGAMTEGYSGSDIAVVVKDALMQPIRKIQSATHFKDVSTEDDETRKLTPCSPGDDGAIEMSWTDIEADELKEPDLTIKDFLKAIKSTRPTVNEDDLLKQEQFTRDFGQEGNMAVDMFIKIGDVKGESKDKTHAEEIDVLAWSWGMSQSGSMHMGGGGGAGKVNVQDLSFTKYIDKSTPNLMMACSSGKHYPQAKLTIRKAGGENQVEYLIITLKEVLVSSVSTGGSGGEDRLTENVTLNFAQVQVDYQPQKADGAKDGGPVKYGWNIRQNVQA
T1 sequence (Q06263 280-330 partner limits assumed): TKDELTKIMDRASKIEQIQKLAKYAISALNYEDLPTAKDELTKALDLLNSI
Assay: Fluorescence polarization binding of fluorescently labeled ESCRT-III peptide to Vps4^101-437-Hcp1
Parameters: species or system S. cerevisiae
Settings: 2:1 Vta1^VSL:Vps4 subunits, 1 mM ADP·BeFx, 1 nM fluorescent peptide, 20 mM HEPES pH 7.4, 100 mM NaCl, 10 mM MgCl2, 1 mM DTT, room temperature; per Vps4 hexamer; global fit of four independent experiments
Method: Fluorescence polarization assay for ESCRT-III peptide binding
When equilibrium was reached, parallel and perpendicular fluorescence intensities were measured on a Biotek Synergy Neo HTS microplate reader using an excitation wavelength of 485 nm and an emission wavelength of 528 nm.

CC[C@H](C)[C@H](NC(=O)[C@H](CCC(=O)O)NC(=O)[C@H](CC(=O)O)NC(=O)[C@H](CC(C)C)NC(=O)[C@@H](NC(=O)[C@H](CCCCN)NC(=O)[C@H](CC(N)=O)NC(=O)[C@@H](NC(=O)[C@@H](NC(=O)[C@H](CCC(=O)O)NC(=O)[C@H](CC(=O)O)NC(=O)c1ccc2c(c1)C(=O)OC21c2ccc(O)cc2Oc2cc(O)ccc21)[C@@H](C)CC)C(C)C)C(C)C)C(=O)NCC(=O)N[C@H](C(=O)N[C@@H](CC(=O)O)C(=O)N[C@@H](CC(C)C)C(=O)N[C@@H](CC(N)=O)C(=O)N[C@@H](CO)C(=O)N[C@@H](CCC(N)=O)C(=O)N[C@@H](CC(C)C)C(=O)N[C@@H](CCC(N)=O)C(N)=O)C(C)C [Peptide ‘20’] (HELM PEPTIDE1{[O=C1OC2(c3ccc(O)cc3Oc3cc(O)ccc32)c2ccc(C(=O)[*:2])cc21].D.E.I.V.N.K.V.L.D.E.I.G.V.D.L.N.S.Q.L.Q.[am]}$$$$V2.0)
Kd: 178 nM
